Earlier results as cited in patent US6951877B2, “Materials and methods for treating hypercholesterolemia” (ARYx Therapeutics, Inc., priority 2002, dated 2005).
Where two headings read alike, the source gives them in different places. Blank lines part the entries; values can stand above or below the compound they belong to.

Tests used:
patients [1] = tested on: patients
patients [2] = tested on: patients; remark: listed apart in the source
[3] = tested on: asymptomatic, middle-aged men with primary hypercholesterolemia

SMILES: COCc1c(C(C)C)nc(C(C)C)c(/C=C/[C@@H](O)C[C@@H](O)CC(=O)O)c1-c1ccc(F)cc1 [cerivastatin]
U.S. deaths due to severe rhabdomyolysis reported to FDA (patients [1]; all reports associated with use of cerivastatin): 31
U.S. deaths due to severe rhabdomyolysis reported to FDA (patients [1]; concomitant gemfibrozil use): 12

patients with elevated liver enzymes (patients [2]; 40 mg): 0.6%
patients with elevated liver enzymes (patients [2]; 80 mg): 2.3%
patients with elevated liver enzymes (patients [2]; doses of 10 or 20 mg): 0.2%
SMILES: CC(C)c1c(C(=O)Nc2ccccc2)c(-c2ccccc2)c(-c2ccc(F)cc2)n1CC[C@@H](O)C[C@@H](O)CC(=O)O [atorvastatin]

SMILES: Cc1ccc(C)c(OCCCC(C)(C)C(=O)O)c1 [gemfibrozil]
reduction in CHD risk ([3]; over the 5-year follow-up period): 34%
HDL cholesterol ([3]; treatment with gemfibrozil): increased HDL cholesterol
LDL cholesterol ([3]; treatment with gemfibrozil): lowered LDL, cholesterol
